In one data set the test system is human sperm motility. Put plainly: Computer-assisted sperm analysis (CASA) of human sperm motility. It is filed as cell-based. As to conditions: for IC50: Homo sapiens, Sperm. On the procedure: In another embodiment, a computer-assisted sperm analysis (CASA) can be used as a live cell compound screen for determining the effect of compounds on human sperm motility. Additionally, to facilitate the IC50 evaluation of compounds using different ejaculates, reducing inter-assay variation due to differences in sperm quality in different semen samples, an index of relative motility inhibition (RMI) was developed.
This is calculated as: RMI=[% motility*VSL]; percentage of motile sperm (% motility) or the percentage of progressively motile sperm (% progressive motility, RPMI) multiplied by the straight-line velocity (VSL); the average velocity measured in a straight line from the beginning to the end of a track in μm/sec.
Normalized RMI can be calculated by dividing the RMI of each experimental condition by its respective DMSO control.
Computer-assisted sperm analysis (CASA) was used as a live cell compound screen for determining the effect of compounds on human sperm motility. Computer-assisted sperm analysis (CASA) was performed using the approach taught in Mitra et al., Biology of Reproduction, Vol. 82, p 491 (2010), to determine the parameters of the control versus compound-treated spermatozoa. The parameters measured are: average pathway velocity (VAP: the average velocity of the smoothed cell path in 1 m/sec), the straight-line velocity (VSL: the average velocity measured in a straight line from the beginning to the end of track in 1 m/sec), the curvilinear velocity (VCL: the average velocity measured over the actual point-to-point track of the cell in 1 m/sec), the lateral head amplitude (ALH: amplitude of lateral head displacement in 1 m), the beat cross-frequency (BCF: frequency of sperm head crossing the sperm average path in Hz), the straightness (STR: the average value of the ratio VSL/VAP in %), and the linearity (LIN: the average value of the ratio VSL/VCL in %). The sperm motility parameters are assessed in pre-warmed (37° C.) two- or four-chambered 20-mm Leja slides, loading 5 μL or 2 μL, respectively, of the samples in each chamber and immediately using CASA. This computerized measuring device included a phase-contrast microscope (Olympus CX41), a camera, a mini-therm stage warmer, an image digitizer, and a computer to store and analyze data. The software used for data analysis is the HTR Ceros 12.3 (Hamilton-Thorne Biosciences). A range of 13 to 20 fields are scanned from each chamber. Progressive cells had to have a minimum of 25 μm/sec VAP and 80% of STR.
To facilitate the IC50 evaluation of compounds using different ejaculates, reducing inter-assay variation due to differences in sperm quality in different semen samples, an index of relative motility inhibition (RMI) was developed. This is calculated as: RMI=[% motility*VSL]; percentage of motile sperm (% motility) or the percentage of progressively motile sperm (% progressive motility, RPMI) multiplied by the straight-line velocity (VSL); the average velocity measured in a straight line from the beginning to the end of a sperm track in μm/sec. Normalized RMI (RPMI) was calculated by dividing the RMI of each experimental condition by its respective DMSO control.
The analysis of sperm motility was carried out with computer-assisted sperm analysis (CASA) (Ceros version 12.3 software; Hamilton-Thorne), using the techniques taught in Mitra et al., Biology of Reproduction, Vol. 82, p 491 (2010).

Data set [1] is described as follows: In vitro absorption, Caco-2 permeability and recovery. The format is in vitro ADME. As to conditions: human, Caco-2; read-out: permeability to Caco-2 cells. On the procedure:
(§1) The in vitro absorption was measured using methods described in Hidalgo, I. J. et al. (1989), Gastroenterology, 96: 736-749.
(§2) The apparent permeability coefficient (Papp) of the test compound was calculated as follows:
(§3) [formula] where VR is the volume of the receiver chamber. CR, end is the concentration of the test compound in the receiver chamber at the end time point, Δt is the incubation time and A is the surface area of the cell monolayer. CD, mid is the calculated mid-point concentration of the test compound in the donor side, which is the mean value of the donor concentration at time 0 minute and the donor concentration at the end time point. CR, mid is the mid-point concentration of the test compound in the receiver side, which is one half of the receiver concentration at the end time point. Concentrations of the test compound were expressed as peak areas of the test compound.
(§4) The recovery of the test compound was calculated as follows: […]
(§5) where VD and VR are the volumes of the donor and receiver chambers, respectively. CD,end is the concentration of the test compound in the donor sample at the end time point. CR,end is the concentration of the test compound in the receiver sample at the end time point. CD0 is the concentration of the test compound in the donor sample at time zero. Concentrations of the test compound are expressed as peak areas of the test compound. […]
(In general: Caco-2 cells form a polarised layer with tight junctions and transporters.)

Another data set has as its system Caco-2 cells. The description is as above. It is filed as in vitro ADME. Here is the method: as §1, §2, §3, §4, §5
The nature of data set [2]: In vitro metabolism, human liver microsomes. As to conditions: read-out: Human liver microsomes metabolism T½. The format is in vitro ADME. Here is the method: In vitro metabolism was evaluated using the methods described in Obach, R. S. et al. (1997), J. Pharmacol. Exp. Ther., 283: 46-58.
Intrinsic Clearance (microsomes, S9, cryopreserved hepatocytes, recombinant CYP, recombinant UGT) Metabolic stability, expressed as percent of the parent compound remaining, was calculated by comparing the peak area of the compound at the time point relative to that at time-O. The half-life (T½) was estimated from the slope of the initial linear range of the logarithmic curve of compound remaining (%) vs. time, assuming the first-order kinetics. The apparent intrinsic clearance (CLint, in μL/min/pmol, μL/min/mg or μL/min/Mcell) was calculated according to the following formula: […]
In general terms: Liver microsomes are vesicles of endoplasmic reticulum, rich in cytochrome P450 enzymes.

Data set [3] in a line: In vitro toxicity, cell viability. It is filed as cell-based. Here is the method:
The percent of control activity was calculated by comparing the fluorescence reading in the presence of test compound to that in the absence of a test (control) compound. Subsequently, the percent of inhibition was calculated by subtraction of the percent of control value from 100. IC50 values were determined by non-linear regression analysis of the concentration-response curves. These parameters are obtained by Hill equation curve fitting. See, for example, Nociari, M. M. et al. (1998), J. Immunol. Meth., 213: 157-167.

Consider one compound from US10472334B2, “Small molecules for inhibiting male fertility” (The University of North Carolina at Chapel Hill, priority 2014, dated 2019).

Read-outs that look alike come from different tables or passages of the source.

One may read the IC50 as the midpoint of a concentration-inhibition curve. In the case of `CCOC(=O)CSc1nc(NNC(=O)OC)nc(Nc2ccc(NC(=O)OC)c(O)c2)n1` [TZ4_121, [4-(3-Hydroxy-4-methoxycarbonylamino-phenylamino)-6-(N′methoxycarbonyl-hydrazino)-1,3,5-triazin-2-ylsulfanyl]-acetic acid ethyl ester], the “change in progressive motility” value in the data set with human sperm motility (FIG. 7, 12.5 μM) was “significant decrease in progressive motility”. The IC50 in the data set on human sperm motility (FIG. 10, RMI using % progressive motility, read-out: IC50 in terms of progressive motility) is roughly 4.3 µM; in the data set with human sperm motility (FIGS. 3 and 4, read-out: IC50, CASA, RMI (relative motility)), roughly 7.5 µM; with human sperm motility (relative motility index using % progressive motility, read-out: CASA IC50 RPMI), 7.5 µM; in data set [3] (FIG. 2, read-out: cell viability IC50) it was roughly 17 µM; in data set [3] (read-out: In vitro toxicology IC50), roughly 20 µM. Also, the “time until infertility would likely result, time course of sperm motility” value in the data set on human sperm motility (concentration of around 20 μM, FIG. 5) was 3 to 5 min. This compound also gave a sperm killed in the data set with human sperm motility (within 3 minutes) greater than 70%. Moreover, the Papp in data set [1] was determined as 0.2 ×10⁻⁶ cm/s. In addition, the “Recovery from the permeability assay” value in the data set with Caco-2 cells turned out to be 93%. Besides, in data set [2], the half-life was 41 min.
